Read-outs that look alike come from different tables or passages of the source.
Key:
mTOR = mTOR (Homo sapiens (Human), UniProt P42345); test: KdELECT assay for binding affinity to mTOR
Description: (§1) Compounds were tested using a KdELECT assay. Kinase-tagged T7 phage strains were prepared in an E. coli host derived from the BL21 strain. E. coli were grown to log-phase and infected with T7 phage and incubated with shaking at 32° C. until lysis. The lysates were centrifuged and filtered to remove cell debris. The remaining kinases were produced in HEK-293 cells and subsequently tagged with DNA for qPCR detection. Streptavidin-coated magnetic beads were treated with biotinylated small molecule ligands for 30 minutes at room temperature to generate affinity resins for kinase assays. The liganded beads were blocked with excess biotin and washed with blocking buffer (SeaBlock (Pierce), 1% BSA, 0.05% Tween 20, 1 mM DTT) to remove unbound ligand and to reduce non-specific binding. Binding reactions were assembled by combining kinases, liganded affinity beads, and test compounds in 1×binding buffer (20% SeaBlock, 0.17×PBS, 0.05% Tween 20, 6 mM DTT). Test compounds were prepared as 111X stocks in 100% DMSO. Kd values were determined using an 11-point 3-fold compound dilution series with three DMSO control points. All compounds for Kd measurements are distributed by acoustic transfer (non-contact dispensing) in 100% DMSO. The compounds were then diluted directly into the assays such that the final concentration of DMSO was 0.9%. All reactions performed in polypropylene 384-well plate. Each was a final volume of 0.02 mL. The assay plates were incubated at room temperature with shaking for 1 hour and the affinity beads were washed with wash buffer (1×PBS, 0.05% Tween 20). The beads were then re-suspended in elution buffer (1×PBS, 0.05% Tween 20, 0.5 μM nonbiotinylated affinity ligand) and incubated at room temperature with shaking for 30 minutes. The kinase concentration in the eluates was measured by qPCR.

HEK293 cells = test: Cellular growth inhibition assay (CellTiter-Glo), HEK293 cells; assay type: cell-based; conditions: HEK293 cells, three days of compound treatment, CellTiter-Glo 2.0, read-out: CTG HEK293 GI50
Procedure, shortened: (§2)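 HeLa or HEK293 cells in DMEM with 10% FBS exposed to titrated compound for three days at 37 °C, 5% CO2, 24 h after seeding. Viability by CellTiter-Glo 2.0 luminescence, normalized to DMSO Day 0 and Day 3 readings; four-parameter fit gives GI50.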

HeLa cells = test: Cellular growth inhibition assay (CellTiter-Glo), HeLa cells; assay type: cell-based; conditions: HeLa cells, three days of compound treatment, CellTiter-Glo 2.0, read-out: CTG HELA GI50
Procedure, shortened: as §2

BTK = BTK (Homo sapiens (Human), UniProt Q06187); test: KdELECT assay for binding affinity to BTK
Description: as §1, with “1× binding” for “1×binding”

CDK9 = CDK9 (Homo sapiens (Human), UniProt P50750); test: KdELECT assay for binding affinity to CDK9
Description: as §1, with “KdELECT.” for “KdELECT assay.”

Sequence of BTK (Q06187 whole entry): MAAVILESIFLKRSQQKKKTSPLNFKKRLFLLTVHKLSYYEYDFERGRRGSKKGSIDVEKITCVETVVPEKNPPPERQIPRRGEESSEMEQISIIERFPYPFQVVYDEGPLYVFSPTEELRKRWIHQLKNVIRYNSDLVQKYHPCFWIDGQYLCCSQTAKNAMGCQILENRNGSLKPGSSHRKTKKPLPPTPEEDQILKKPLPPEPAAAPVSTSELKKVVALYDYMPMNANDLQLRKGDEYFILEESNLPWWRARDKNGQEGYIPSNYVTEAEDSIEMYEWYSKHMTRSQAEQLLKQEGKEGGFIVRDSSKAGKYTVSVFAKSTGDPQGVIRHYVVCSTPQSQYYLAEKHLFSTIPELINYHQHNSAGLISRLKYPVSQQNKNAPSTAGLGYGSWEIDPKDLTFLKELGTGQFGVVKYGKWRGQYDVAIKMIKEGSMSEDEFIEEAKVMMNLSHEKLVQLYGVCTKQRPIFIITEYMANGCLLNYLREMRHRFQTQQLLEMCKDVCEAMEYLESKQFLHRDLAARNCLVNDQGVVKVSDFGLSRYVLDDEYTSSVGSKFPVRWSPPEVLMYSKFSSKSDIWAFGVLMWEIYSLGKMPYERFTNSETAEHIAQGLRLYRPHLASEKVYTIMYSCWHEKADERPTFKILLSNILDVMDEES
Sequence of CDK9 (P50750 whole entry): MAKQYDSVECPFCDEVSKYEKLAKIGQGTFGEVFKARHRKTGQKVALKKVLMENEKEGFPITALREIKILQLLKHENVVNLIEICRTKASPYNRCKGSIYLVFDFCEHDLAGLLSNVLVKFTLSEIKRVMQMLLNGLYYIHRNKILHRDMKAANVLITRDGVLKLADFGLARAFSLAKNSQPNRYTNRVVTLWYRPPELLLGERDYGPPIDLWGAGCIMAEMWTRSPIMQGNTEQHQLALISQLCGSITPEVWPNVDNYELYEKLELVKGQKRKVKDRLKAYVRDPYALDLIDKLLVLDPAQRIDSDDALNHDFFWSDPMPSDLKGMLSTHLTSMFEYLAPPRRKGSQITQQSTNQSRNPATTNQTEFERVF

SMILES | Kd (mTOR) [nM] | Kd (BTK) [nM] | also measured
C[C@@H]1COCCN1c1nc(N2CCOC[C@H]2C)c2ccc(-c3cccc(C(=O)NCCOCCOCCOCCOCCOc4ccc(C(=O)NC5C(C)(C)C(Oc6ccc(C#N)c(Cl)c6)C5(C)C)cc4)c3)nc2n1 (stereo partly shown) [Compound I-10] | 50 to 500 |  | 
Nc1nc2cc(-c3nn(CCCCC(=O)NCCCCCCCC/C=C/C(=O)N4CCC[C@@H](n5nc(-c6ccc(Oc7ccccc7)cc6)c6c(N)ncnc65)C4)c4ncnc(N)c34)ccc2o1 [Compound I-2, 5-[4-amino-3-(2-amino-1,3-benzoxazol-5-yl)pyrazolo[3,4-d]pyrimidin-1-yl]-N—[(E)-11-[(3R)-3-[4-amino-3-(4-phenoxyphenyl)pyrazolo[3,4-d]pyrimidin-1-yl]-1-piperidyl]-11-oxo-undec-9-enyl]pentanamide] | 500 to 2500 |  | 
C[C@@H]1COCCN1c1nc(N2CCOC[C@H]2C)c2ccc(-c3cccc(C(=O)NCCOCCOCCOCCOCCOCCOCCOCCOCCOc4ccc(C(=O)N[C@H]5C(C)(C)[C@H](Oc6ccc(C#N)c(Cl)c6)C5(C)C)cc4)c3)nc2n1 [Compound I-9, N-[2-[2-[2-[2-[2-[2-[2-[2-[2-[4-[[3-(3-chloro-4-cyano-phenoxy)-2,2,4,4-tetramethyl-cyclobutyl]carbamoyl]phenoxy]ethoxy]ethoxy]ethoxy]ethoxy]ethoxy]ethoxy]ethoxy]ethoxy]ethyl]-3-[2-[(3R)-3-methylmorpholin-4-yl]-4-(3-methylmorpholin-4-yl)pyrido[2,3-d]pyrimidin-7-yl]benzamide] | < 50 |  | 
CCc1cnn2c(NCc3ccc(OCCCN4CCN(CCCN(C)C/C=C/C(=O)N5CCC[C@@H](n6nc(-c7ccc(Oc8ccccc8)cc7)c7c(N)ncnc76)C5)CC4)nc3)cc(N3CCCC[C@H]3CCO)nc12 [Compound I-69] |  | < 50 | GI50 (HEK293 cells): < 500 nM; GI50 (HeLa cells): < 500 nM; Kd (CDK9): < 50 nM
C[C@@H]1COCCN1c1nc(N2CCOC[C@H]2C)c2ccc(-c3cccc(C(=O)NCCCCCCCCOc4ccc(C(=O)NC5C(C)(C)C(Oc6ccc(C#N)c(Cl)c6)C5(C)C)cc4)c3)nc2n1 (stereo partly drawn) [Compound I-8, 3-[2,4-bis[(3R)-3-methylmorpholin-4-yl]pyrido[2,3-d]pyrimidin-7-yl]-N-[8-[4-[[3-(3-chloro-4-cyano-phenoxy)-2,2,4,4-tetramethyl-cyclobutyl]carbamoyl]phenoxy]octyl]benzamide] | > 2500 | 50 to 500 | 
C[C@@H]1COCCN1c1nc(N2CCOC[C@H]2C)c2ccc(-c3cccc(C(=O)NCCOCCOCCOCCOCCOCCOCCOCCOC/C=C/C(=O)N4CCC[C@@H](n5nc(-c6ccc(Oc7ccccc7)cc6)c6c(N)ncnc65)C4)c3)nc2n1 [Compound I-5, N-[2-[2-[2-[2-[2-[2-[2-[2-[(E)-4-[(3R)-3-[4-amino-3-(4-phenoxyphenyl)pyrazolo[3,4-d]pyrimidin-1-yl]-1-piperidyl]-4-oxo-but-2-enoxy]ethoxy]ethoxy]ethoxy]ethoxy]ethoxy]ethoxy]ethoxy]ethyl]-3-[2,4-bis[(3R)-3-methylmorpholin-4-yl]pyrido[2,3-d]pyrimidin-7-yl]benzamide] | 50 to 500 | < 50 | 
C[C@@H]1COCCN1c1nc(N2CCOC[C@H]2C)c2ccc(-c3cccc(C(=O)NCCOCCOCCOCCOC/C=C/C(=O)N4CCC[C@@H](n5nc(-c6ccc(Oc7ccccc7)cc6)c6c(N)ncnc65)C4)c3)nc2n1 [Compound I-3, N-[2-[2-[2-[2-[(E)-4-[(3R)-3-[4-amino-3-(4-phenoxyphenyl)pyrazolo[3,4-d]pyrimidin-1-yl]-1-piperidyl]-4-oxo-but-2-enoxy]ethoxy]ethoxy]ethoxy]ethyl]-3-[2,4-bis[(3R)-3-methylmorpholin-4-yl]pyrido[2,3-d]pyrimidin-7-yl]benzamide] | 50 to 500 | 50 to 500 | 
Cc1c(NC(=O)c2ccc(C3CC3)cc2F)cc(F)cc1-c1ncnc(N)c1OCCN(C)C(=O)/C=C/CN(C)CCCN1CCN(CCCNS(=O)(=O)c2ccc(Nc3ncc(Br)c(Nc4cccc(F)c4C(N)=O)n3)cc2)CC1 [Compound I-79, 2-[[2-[4-[3-[4-[3-[[(E)-4-[2-[4-amino-6-[3-[(4-cyclopropyl-2-fluoro-benzoyl)amino]-5-fluoro-2-methyl-phenyl]pyrimidin-5-yl]oxyethyl-methyl-amino]-4-oxo-but-2-enyl]-methyl-amino]propyl]piperazin-1-yl]propylsulfamoyl]anilino]-5-bromo-pyrimidin-4-yl]amino]-6-fluoro-benzamide] |  | < 50 | GI50 (HEK293 cells; Homo sapiens, 72 h): > 5000 nM; GI50 (HeLa cells; Homo sapiens, 72 h): 1500 to 5000 nM; Kd (CDK9): 50 to 500 nM
C[C@@H]1COCCN1c1nc(N2CCOC[C@H]2C)c2ccc(-c3cccc(C(=O)NCCCCCCCC/C=C/C(=O)N4CCC[C@@H](n5nc(-c6ccc(Oc7ccccc7)cc6)c6c(N)ncnc65)C4)c3)nc2n1 [Compound I-7, N—[(E)-11-[(3R)-3-[4-amino-3-(4-phenoxyphenyl)pyrazolo[3,4-d]pyrimidin-1-yl]-1-piperidyl]-11-oxo-undec-9-enyl]-3-[2,4-bis[(3R)-3-methylmorpholin-4-yl]pyrido[2,3-d]pyrimidin-7-yl]benzamide] | 50 to 500 | 50 to 500 | 
